The numbers were not newly measured in patent publication US20140141044A1, “Cord Colitis Syndrome Pathogen” (Dana-Farber Cancer Institute, Inc., priority 2012, published 2014), which cites them from elsewhere.

Structures are written as SMILES.

For the data set, the system named is B. enterica. The note with it: direct or inferred from related organisms.

Regarding `Cc1ncc([N+](=O)[O-])n1CCO` [metronidazole], the “sensitivity of B. enterica” value is reported as “direct or inferred sensitivity”.
